pEC50: −log10 of the molar value.
Test system: HCV replicon (HCV1b sub-genomic, Huh-7 cells)
Assay: HCV replicon RNA replication assay (luciferase reporter)
Format: cell-based, Hepatitis C virus (CON-1 genotype b)
Conditions: Hepatitis C virus, Huh-7, 72 h, read-out: EC50 (Range)
Method: All curve fitting was conducted using non-linear regression analyses from PRISM (version 4.0c, GraphPad Inc.) and the determination of Rmax and EC50 or IC50 parameters were obtained from sigmoidal dose-response phase (variable slope) equation.
The replicon HCV1b is generated based on the wild-type sequence CON-1 genotype b (GenBank accession number AJ238799; Lohmann et al., Science 1999, 285: 110-113) and expressed the sub-genomic fragment HCV NS3-NS4A-NS4B-NS5A-NS5B. The replicon contain a hybrid HCV-IRES 5′UTR, a modified luciferase reporter gene expressed as a luciferase-Ubi-neomycin phosphotransferase gene fusion and an EMCV IRES NS3-NS5B subgenomic fragment with its 3′UTR. To generate cell lines harboring the replicon, Huh-7 cells are electroporated with purified in vitro HCV1b RNA transcripts and stable cell lines are selected in the presence of G418. Stable replicon cell lines are established as described in Science 1999, 285: 110-113. The amount of luciferase expressed by selected cells directly correlates with the level of HCV RNA replication, as measured by real-time PCR.
Stable HCV replicon cells are maintained in Dulbecco's Modified Eagle Medium (DMEM) supplemented with 10% FBS and 0.5 mg/ml G418. During the assay, DMEM supplemented with 10% FBS, containing 0.5% DMSO and lacking G418 are used as assay medium. For the assay, cell stocks are trypsinized and diluted in assay medium to distribute 7,500 cells in 96-well plates. The plates are then incubated at 37° until compound addition. Serial dilutions of the test compound are prepared in 100% DMSO, before dilution in assay medium to a final DMSO concentration of 0.5% to generate a concentration dose response curves. A fixed volume from each well of the compound dilution plate is transferred to a corresponding well of the cell culture plate. The cell culture plate is incubated at 37° C. with 5% CO2 for 72 hours. Following the 72 h incubation period, the medium is aspirated from the 96-well assay plate and a volume of 50_l of lysis buffer 100 mM Tris acetate, 20 mM Mg acetate, 2 mM EGTA, 3.6 mM ATP, 1% Brij 58, 0.7%_-mercaptoethanol containing 45_g/ml luciferine (pH 7.9) is added to each well. The luciferase activity is determined using the luciferase substrate and the luminescence is detected on a MicroBeta JET 1450 LSC & Luminescence Counter (Perkin Elmer) instrument. The luminescence in each well of the culture plate is a measure of the amount of HCV RNA replication in the presence of various concentrations of inhibitor. The % inhibition is calculated for each inhibitor concentration and used to determine the concentration that results in 50% inhibition of HCV replication (EC50).

SMILES: Cc1noc(C)c1C(=O)O/N=C(\N)c1ccc(OCc2ccc(Cl)cc2)cc1 [Example 32, (Z)-4-((4-chlorobenzyl)oxy)-N′-((3,5-dimethylisoxazole-4-carbonyl)oxy)benzimidamide]
- pEC50: 6.00 to 6.30

SMILES: N/C(=N\OC(=O)c1cccc2ccccc12)c1ccc2c(c1)OCO2 [Example 33, (Z)—N′-((1-naphthoyl)oxy)benzo[d][1,3]dioxole-5-carboximidamide]
- pEC50: 6.00 to 6.30

SMILES: Cc1onc(-c2ccccc2Cl)c1C(=O)O/N=C(\N)c1cccc(Br)c1 [Example 34, (Z)-3-Bromo-N′-((3-(2-chlorophenyl)-5-methylisoxazole-4-carbonyl)oxy)benzimidamide]
- pEC50: 5.00 to 6.00

SMILES: N/C(=N\OC(=O)c1ccccc1C(F)(F)F)c1ccc2c(c1)OCO2 [Example 35, (Z)—N′-((2-(trifluoromethyl)benzoyl)oxy)benzo[d][1,3]dioxole-5-carboximidamide]
- pEC50: 5.00 to 6.00

SMILES: Cc1onc(-c2ccccc2Cl)c1C(=O)O/N=C(\N)c1ccc(-c2csnn2)cc1 [Example 36, (Z)—N′-((3-(2-chlorophenyl)-5-methylisoxazole-4-carbonyl)oxy)-4-(1,2,3-thiadiazol-4-yl)benzimidamide]
- pEC50: 6.00 to 6.30

SMILES: Cc1cccc(C)c1C(=O)O/N=C(\N)Cc1ccc(OCc2ccc(F)cc2)cc1 [Example 37, (Z)—N′-((2,6-dimethylbenzoyl)oxy)-2-(4-((4-fluorobenzyl)oxy)phenyl)acetimidamide]
- pEC50: 6.00 to 6.30

SMILES: CC(C)OC(=O)c1ccccc1-c1ccccc1C(=O)O/N=C(\N)c1ccc2c(c1)OCO2 [Example 38, (Z)-isopropyl 2′-((((amino(benzo[d][1,3]dioxol-5-yl)methylene)amino)oxy)carbonyl)-[1,1′-biphenyl]-2-carboxylate]
- pEC50: > 6.30

SMILES: Cc1cccc(C)c1C(=O)O/N=C(\N)c1ccc(OCc2ccc(Cl)cc2)cc1 [Example 40, (Z)-4-((4-chlorobenzyl)oxy)-N′-((2,6-dimethylbenzoyl)oxy)benzimidamide]
- pEC50: > 6.30

SMILES: Cc1cccc(C)c1C(=O)O/N=C(\N)c1ccccc1OCc1ccc(F)cc1 [Example 41, (Z)—N′-((2,6-dimethylbenzoyl)oxy)-2-((4-fluorobenzyl)oxy)benzimidamide]
- pEC50: > 6.30

SMILES: Cc1cccc(C)c1C(=O)O/N=C(\N)c1ccc(-c2csnn2)cc1 [Example 42, (Z)—N′-((2,6-dimethylbenzoyl)oxy)-4-(1,2,3-thiadiazol-4-yl)benzimidamide]
- pEC50: 6.00 to 6.30

SMILES: Cc1ccc2ccccc2c1C(=O)O/N=C(\N)c1ccc2c(c1)OCO2 [Example 43, (Z)—N′-((2-methyl-1-naphthoyl)oxy)benzo[d][1,3]dioxole-5-carboximidamide]
- pEC50: 6.00 to 6.30

SMILES: N/C(=N\OC(=O)c1ccccc1Cc1ccccc1)c1ccc2c(c1)OCO2 [Example 44, (Z)—N′-((2-benzylbenzoyl)oxy)benzo[d][1,3]dioxole-5-carboximidamide]
- pEC50: 6.00 to 6.30

SMILES: N/C(=N\OC(=O)c1ccccc1-c1ccccc1C(=O)O)c1ccc2c(c1)OCO2 [Example 45, (Z)-2′-((((amino(benzo[d][1,3]dioxol-5-yl)methylene)amino)oxy)carbonyl)-[1,1′-biphenyl]-2-carboxylic acid]
- pEC50: < 5.00

SMILES: COc1ccc(/C(N)=N/OC(=O)c2c(-c3ccccc3Cl)noc2C)cc1 [Example 46, (Z)—N′-((3-(2-chlorophenyl)-5-methylisoxazole-4-carbonyl)oxy)-4-methoxybenzimidamide]
- pEC50: 6.00 to 6.30

SMILES: Cc1onc(-c2ccccc2Cl)c1C(=O)O/N=C(\N)c1ccc2ccccc2n1 [Example 47, (Z)—N′-((3-(2-chlorophenyl)-5-methylisoxazole-4-carbonyl)oxy)quinoline-2-carboximidamide]
- pEC50: 5.00 to 6.00

SMILES: Cc1onc(-c2ccccc2Cl)c1C(=O)O/N=C(\N)c1ccc(OCc2ccc(Cl)nc2)cc1 [Example 49, (Z)—N′-((3-(2-chlorophenyl)-5-methylisoxazole-4-carbonyl)oxy)-4-((6-chloropyridin-3-yl)methoxy)benzimidamide]
- pEC50: > 6.30

SMILES: COc1cccc(/C(N)=N/OC(=O)c2c(-c3ccccc3Cl)noc2C)c1 [Example 50, (Z)—N′-((3-(2-chlorophenyl)-5-methylisoxazole-4-carbonyl)oxy)-3-methoxybenzimidamide]
- pEC50: 6.00 to 6.30
